Reference: paper PMC9250511, “Metabolomics-guided discovery of cytochrome P450s involved in pseudotropine-dependent biosynthesis of modified tropane alkaloids” (Nature Communications, 2022)

Legend:
AbP450-5021 = molecular target: T1, AbP450-5021 (Atropa belladonna, UniProt A0A3G4RHX1); test: transient expression in N. benthamiana leaves, UHPLC/HRMS of products; format: cell-based; settings: 1 mM substrate hydrochloride infiltrated in leaf, 2 days
T1 construct: full-length ORF in pEAQ-HT-DEST1, transiently produced in Nicotiana benthamiana leaves
T1 sequence (A0A3G4RHX1 entry or part of it): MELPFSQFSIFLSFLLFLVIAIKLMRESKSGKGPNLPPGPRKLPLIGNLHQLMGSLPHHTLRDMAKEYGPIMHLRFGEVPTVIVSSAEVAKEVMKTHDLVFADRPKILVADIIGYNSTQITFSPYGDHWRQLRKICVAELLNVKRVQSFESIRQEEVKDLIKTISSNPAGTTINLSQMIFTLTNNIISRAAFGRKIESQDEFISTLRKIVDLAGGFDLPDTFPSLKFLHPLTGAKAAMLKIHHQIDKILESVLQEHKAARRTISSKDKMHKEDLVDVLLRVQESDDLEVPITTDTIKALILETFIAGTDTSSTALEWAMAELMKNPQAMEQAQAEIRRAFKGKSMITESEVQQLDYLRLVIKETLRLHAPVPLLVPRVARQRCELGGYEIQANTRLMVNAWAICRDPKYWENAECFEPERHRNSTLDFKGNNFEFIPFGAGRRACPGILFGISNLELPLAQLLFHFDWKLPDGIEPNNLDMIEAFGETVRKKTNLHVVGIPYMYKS

AbP450-116623 = molecular target: T2, AbP450-116623 (Atropa belladonna, UniProt A0A3G4RHW9); test: as above; format: cell-based; settings: 1 mM substrate hydrochloride infiltrated in leaf, 2 days; ring-hydroxylation at carbon adjacent to ring nitrogen (isomer 1)
T2 construct: full-length ORF in pEAQ-HT-DEST1, transiently produced in Nicotiana benthamiana leaves
T2 sequence (A0A3G4RHW9 entry or part of it): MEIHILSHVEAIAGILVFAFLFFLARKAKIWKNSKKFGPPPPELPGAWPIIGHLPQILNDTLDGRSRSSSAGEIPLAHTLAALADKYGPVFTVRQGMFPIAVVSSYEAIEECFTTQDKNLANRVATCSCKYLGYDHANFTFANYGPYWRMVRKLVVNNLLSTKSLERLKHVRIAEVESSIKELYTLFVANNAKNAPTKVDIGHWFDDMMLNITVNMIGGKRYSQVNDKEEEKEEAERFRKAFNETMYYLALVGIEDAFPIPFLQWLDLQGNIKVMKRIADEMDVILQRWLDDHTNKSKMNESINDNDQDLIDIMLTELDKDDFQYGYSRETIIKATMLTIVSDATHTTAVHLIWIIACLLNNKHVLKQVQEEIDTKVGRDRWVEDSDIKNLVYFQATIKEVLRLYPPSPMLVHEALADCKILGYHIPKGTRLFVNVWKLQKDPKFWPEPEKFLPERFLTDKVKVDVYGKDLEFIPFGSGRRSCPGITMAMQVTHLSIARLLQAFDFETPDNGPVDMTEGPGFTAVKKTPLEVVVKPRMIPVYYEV

Row | SMILES | transient expression in N. benthamiana leaves, UHPLC/HRMS of products (AbP450-5021; N-demethylation to tigloyl norpseudotropine, then ring-hydroxylation (isomer 2)) | transient expression in N. benthamiana leaves, UHPLC/HRMS of products (AbP450-5021; ring-hydroxylation next to the esterified carbon (isomer 2)) | transient expression in N. benthamiana leaves, UHPLC/HRMS of products (AbP450-116623)
1 | C/C=C(\C)C(=O)OC1CC2CCC(C1)N2C (stereo not drawn) [compound 6, tigloyl pseudotropine] | producing AbP450-5021 alone using either tigloyl pseudotropine or tigloyl norpseudotropine as substrate | – | –
2 | C/C=C(\C)C(=O)O[C@@H]1C[C@H]2CC[C@@H](C1)N2 [compound 21, tigloyl norpseudotropine] | – | producing AbP450-5021 alone using either tigloyl pseudotropine or tigloyl norpseudotropine as substrate | Assays with AbP450-116623 alone and N-demethylated tigloyl norpseudotropine as substrate yielded tigloyl hydroxynorpseudotropine
